This note sets out measurements from patent US8003673B2, “Daptomycin for the treatment of biofilm and catheter salvage” (Cubist Pharmaceuticals, Inc., priority 2006, dated 2011).

≈ marks a conversion by molar mass, not a printed value. Where two headings read alike, the source gives them in different places.

Assay [1] has as its system Staphylococcus epidermidis. The assay can be described thus: Susceptibility (MIC) of S. epidermidis isolates used in CVC studies.
Assay [2] relates to Staphylococcus aureus. Description: Susceptibility (MIC) of S. aureus #42 control strain. It counts as cell-based.
The subject of assay [3] is Methicillin-resistant coagulate negative staphylococci biofilms. Type of assay: cell-based, coagulase negative staphylococci (S. epidermidis isolates). How it is done:
Methicillin-resistant coagulate negative staphylococci biofilms were grown to approximately 10^5 cells per cm^2 for 24 h in glass test tubes, planktonic bacteria rinsed away and Mueller Hinton broth (calcium supplemented to […] in daptomycin tests) containing antimicrobials added to the tubes. The concentrations of antimicrobials studied were two-fold dilutions from 64 to 1 μg/mL of daptomycin, rifampin, or daptomycin plus 0.5 μg/mL rifampin. The tests were incubated overnight in room air at 37° C. The cell density in rinsed biofilms was determined prior to addition of antimicrobials and after incubation. The change in bacterial density after incubation with antimicrobials was determined, and the results were expressed as the lowest antimicrobial concentration that killed 99.90% of biofilm bacteria. Bacteria recovered from tests containing rifampin were tested for rifampin susceptibility.

Assay [4] has as its system stationary phase S. epidermidis. Description: In vitro model of stationary phase bacteria (kill kinetics). The conditions noted are these: for Cidal activity against stationary phase culture: through 24 hours. It counts as cell-based. How it is done:
The impact of cidal activity of antibacterial compounds on stationary phase bacteria was assayed. Cultures of S. epidermidis and S. aureus were grown to stationary phase (>1×10^9 and centrifuged, washed 2×, and then resuspended into saline or lactated Ringer's solution. The cultures were treated with either daptomycin or vancomycin at 5 mg/ml and the decrease in viable bacteria were measured through 24 hours to determine the kill kinetics.

Assay [5] concerns S. epidermidis CVC infection. The assay can be described thus: Rat model of CVC infection, infusion therapy. Type of assay: in vivo, Sprague Dawley rats. How it is done:
(§1) Male Sprague Dawley rats (˜250 g) with catheterized jugular veins were used in these studies. Rat catheters (polyurethane tubing, 0.025 inch internal diameter) were inoculated with a culture of S. epidermidis at 5×10^8 CFU/ml. The total volume of the catheters is approximately 40 μl. The catheters were flushed with heparinized saline 1 hour after inoculation, and were maintained by daily flushes. The catheter infection was monitored by daily blood draws that were plated and quantified.
(§2) Daptomycin, vancomycin and nafcillin were used as therapy. Two different dosing regimes were used. The first mimicked clinical infusion with daptomycin administered at 5 mg/ml in the line for 30 minutes once daily compared to vancomycin at 5 mg/ml for 60 minutes twice daily, for a total of 4 days. The second regime simulated antibiotic lock therapy with an 18 hour exposure of daptomycin or vancomycin at 5 mg/ml, followed by a heparinized saline flush, daily for 3 days. In both regimes, the animals received parenteral doses of the appropriate antibiotic by subcutaneous route to simulate total body exposure (as it was not possible to administer the correct dosages through the line at 5 mg/ml). Most trials involved a therapy period, followed by a period of no antibiotic therapy to monitor for resurgence of infection due to surviving bacterial colonies.
(§3) Infection levels were monitored by daily blood draws through the infected catheter. For the terminal harvest, a final blood draw was taken and then the flushed catheter was harvested, and analyzed for surviving bacteria by sonication, vortexing, and plating. The vena cava, heart, lung, kidney, and spleen were assayed as potential metastatic infection sites by aseptic harvest, homogenization, and plating.

The test system of assay [6] is S. epidermidis CVC infection. Description: Rat model of CVC infection, antibiotic lock therapy. Conditions: for Metastatic infection after lock therapy: lock therapy combined with SC dosing. It counts as in vivo, Sprague Dawley rats. How it is done:
as §1, §2, §3

Assay [7] has as its system S. epidermidis biofilm in catheter. Description: Histopathology of CVC biofilms in the rat model. Type of assay: in vivo, Sprague Dawley rats. How it is done: The nature of the CVC infection and resulting biofilms in the catheter was determined through histopathology. The data on histopathology can be summarized as follows: • 1. Eight days after implantation, the rat central venous catheter model develops focal biofilms with or without bacterial colonies in the catheter's inner luminal surfaces. At this time point, the thickness of the biofilm varies between 7 to 15 microns. • 2. After 12 days of implantation, the fibrils making up the inner luminal surface biofilm appear to be denser and more organized, and the biofilm layer is slightly thicker (up to 25 microns). • 3. In the saline negative controls, bacterial colonies were present in the biofilm, and identified as Gram positive cocci. • 4. […] However, cocci-like, Gram positive individual round structures were noted. • 5.
At day 12 post infection in untreated rats, as in the previous time point, biofilms tended to be present in the inner luminal surfaces of the indwelling catheter, 5-25 microns thick, and contained variable numbers of basophilic granular bacterial colonies (confirmed by Gram stain). However, in contrast to the previous time point, focal portions of the luminal protein cast appeared to be more organized and contained numerous bluish bacterial colonies. See FIG. 10 showing the biofilm appearance at day 12 post infection. […] Rat A1 served as negative control and received saline (2 mL/kg SC+saline via catheter); Rat A6 received low-dose daptomycin (10 mg/kg SC+5 mg/mL via catheter); Rat A12 received high-dose daptomycin (33 mg/kg SC+5 mg/mL via catheter); and Rat A17 received vancomycin (50 mg/kg SC+5 mg/mL via catheter). Tissues from the four rats were evaluated. FIG. 11, below, is a composite of the findings for all four rats.
FIG. 11 provides histopathological evidence of daptomycin and vancomycin efficacy after 4 days of infusion therapy. In FIG. 11, from left to right, the images illustrate the CVC tissues from rats A1, A6, A12, and A17, respectively. The upper images are all H&E-stained and the bottom images are all Gram-stained. […] These round structures surrounded or encircled cell membranes.

The mark [8] stands for this setting: strain 119 Staphylococcus epidermidis.
[9] abbreviates: strain 1315 Staphylococcus epidermidis.
Where [10] appears, read: strain 1316 Staphylococcus epidermidis.
Where [11] appears, read: strain 1317 Staphylococcus epidermidis.
Setting [12] is: strain 1318 Staphylococcus epidermidis.
The mark [13] stands for this setting: strain 1319 Staphylococcus epidermidis.
The mark [14] stands for this setting: strain 1320 Staphylococcus epidermidis.
The mark [15] stands for this setting: strain 42 Staphylococcus aureus, read-out: MIC.
[16] abbreviates: Antimicrobial Concentration ≧64.
[17] abbreviates: day 15, after 6 days of antibiotic-free heparin flushes following infusion therapy.
The mark [18] stands for this setting: following 7 days of antibiotic-free heparin flushes.

The MIC is the least concentration at which growth counts as inhibited. Turning to `CC(=O)NC[C@H]1CN(c2ccc(N3CCOCC3)c(F)c2)C(=O)O1` [Linezolid], the MIC is 1 µg/mL (≈ 2.96 µM) in assay [1] (setting [8]); 0.5 µg/mL (≈ 1.48 µM) in assay [1] (setting [9]); 1 µg/mL (≈ 2.96 µM) in assay [1] (setting [10]); 0.5 µg/mL (≈ 1.48 µM) in assay [1] (setting [11]); 1 µg/mL (≈ 2.96 µM) in assay [1] (setting [12]); 0.5 µg/mL (≈ 1.48 µM) in assay [1] (setting [13]). Further, the MIC in assay [1] (setting [14]) was determined as 1 µg/mL (≈ 2.96 µM); in assay [2] (setting [15]) it was 2 µg/mL (≈ 5.93 µM).
Regarding `CO[C@H]1/C=C/O[C@@]2(C)Oc3c(C)c(O)c4c(O)c(c(/C=N/N5CCN(C)CC5)c(O)c4c3C2=O)NC(=O)/C(C)=C\C=C\[C@H](C)[C@H](O)[C@@H](C)[C@@H](O)[C@@H](C)[C@H](OC(C)=O)[C@@H]1C` [Rifampicin], the “# of isolates (lowest concentration that killed 99.90% of biofilm bacteria)” value in assay [3] (Antimicrobial Concentration 1) was 1 (1); in assay [3] (Antimicrobial Concentration 2) it was 0; in assay [3] (Antimicrobial Concentration 4), 1; in assay [3] (Antimicrobial Concentration 8), 2; in assay [3] (Antimicrobial Concentration 16), 2; in assay [3] (Antimicrobial Concentration 32) it was 0. The “# of isolates (lowest concentration that killed 99.90% of biofilm bacteria)” value in assay [3] (setting [16]) turned out to be 21. Moreover, the “(N) number of rifampin susceptible isolates that became rifampin resistant during test” value in assay [3] (Antimicrobial Concentration 1) is listed as 1 (1); in assay [3] (Antimicrobial Concentration 16) it was 1; in assay [3] (setting [16]) it was 7. Besides, the “Mean log10 reduction” value in assay [3] (Antimicrobial Concentration 1) worked out at 3.5 log10; in assay [3] (Antimicrobial Concentration 4) it was 3.2 log10; in assay [3] (Antimicrobial Concentration 8), 3.4 log10; in assay [3] (Antimicrobial Concentration 16) it was 3.0 log10; in assay [3] (setting [16]), 1.4 log10. Moreover, the MIC was 0.008 µg/mL (≈ 0.00972 µM) in assay [1] (setting [8]); less than 0.004 µg/mL in assay [1] (setting [9]); 0.008 µg/mL (≈ 0.00972 µM) in assay [1] (setting [10]); greater than 4 µg/mL in assay [1] (setting [11]); less than 0.004 µg/mL in assay [1] (setting [13]); 0.008 µg/mL (≈ 0.00972 µM) in assay [1] (setting [14]). In addition, the MIC in assay [2] (setting [15]) is less than 0.004 µg/mL.
`CN[C@H](CC(C)C)C(=O)N[C@H]1C(=O)N[C@@H](CC(N)=O)C(=O)N[C@H]2C(=O)N[C@H]3C(=O)N[C@H](C(=O)N[C@H](C(=O)O)c4cc(O)cc(O)c4-c4cc3ccc4O)[C@H](O)c3ccc(c(Cl)c3)Oc3cc2cc(c3O[C@@H]2O[C@H](CO)[C@@H](O)[C@H](O)[C@H]2O[C@H]2C[C@](C)(N)[C@H](O)[C@H](C)O2)Oc2ccc(cc2Cl)[C@H]1O` [Vancomycin]: the MIC was 1 µg/mL (≈ 0.69 µM) in assay [1] (setting [8]); 1 µg/mL (≈ 0.69 µM) in assay [1] (setting [9]); 1 µg/mL (≈ 0.69 µM) in assay [1] (setting [10]); 1 µg/mL (≈ 0.69 µM) in assay [1] (setting [11]); 2 µg/mL (≈ 1.38 µM) in assay [1] (setting [12]); 1 µg/mL (≈ 0.69 µM) in assay [1] (setting [13]). Further, the MIC in assay [1] (setting [14]) was 1 µg/mL (≈ 0.69 µM); in assay [2] (Staphylococcus aureus) it was 0.25 µg/mL (≈ 0.173 µM). The “Cidal activity against stationary phase culture” value in assay [4] (5 mg/ml in lactated Ringer's) is “no cidal activity”; in assay [4] (5 mg/ml in lactated Ringer's, listed as vancomycin), “not cidal”; in assay [4] (5 mg/ml in saline), “neither daptomycin nor vancomycin had cidal activity”. Besides, the “Cidal activity against stationary phase S. epidermidis (conclusion)” value in assay [4] (in vitro, medium not stated) is listed as “not cidal”. The “Catheter infection by CVC blood draw after infusion therapy” value in assay [5] (5 mg/ml in line, daptomycin once a day, vancomycin twice a day, after three days of therapy (day 8)) is “reduced most catheter infections to a non-detectable level”. Further, in assay [5] (comparison between treatments), the “Relative efficacy in the rat CVC model” value was “equally effective (to daptomycin in Ringer's)”. Moreover, the “Animals with harvested catheter positive for S. epidermidis CFUs” value in assay [5] (setting [17]) is on record as 2/6. In addition, the “Animals with positive blood draws through the catheter” value in assay [5] (setting [17]) is 0/6. Moreover, the “Clearing of blood draw cultures during infusion therapy” value in assay [5] (doses days 5-8, daptomycin 30 minute once a day, vancomycin 60 min twice a day) is on record as “negative blood draw cultures by day 8”. Moreover, the “Metastatic infection after infusion therapy (vena cava, heart, lung, kidney, spleen)” value in assay [5] (infusion therapy, same groups as FIG. 3) is on record as “very little metastatic infection at any site”. In addition, the “Overall outcome of lock therapy” value in assay [6] (18 hour lock at 5 mg/ml) is listed as “curative in lock therapy”. In assay [6] (setting [18]), the “Animals with positive blood draws after lock therapy” value is reported as “None”. The “Animals with positive catheter at harvest after lock therapy” value in assay [6] (setting [18]) is given as “None”. Also, the “Metastatic infection after lock therapy” value in assay [6] was “cleared and prevented reemergence of metastatic infection”. Also, the “Biofilm formation and Gram positive bacterial colonies in the biofilm (histopathology summary)” value in assay [7] (5 mg/mL via the catheter) is “did not prevent biofilm formation, or completely the growth and presence of Gram positive bacterial colonies in the biofilm”. Further, the “Bacterial colonies in biofilm, histopathology of single rats” value in assay [7] (after 4 days of infusion therapy, rat A12 daptomycin 33 mg/kg SC + 5 mg/mL via catheter, rat A17 vancomycin 50 mg/kg SC + 5 mg/mL via catheter) is “Biofilms containing true bacterial colonies”.
On to `CCOc1ccc2ccccc2c1C(=O)N[C@@H]1C(=O)N2[C@@H]1SC(C)(C)[C@@H]2C(=O)O` [Nafcillin], for which the MIC in assay [1] (setting [8]) is 0.031 µg/mL (≈ 0.0748 µM); in assay [1] (setting [9]), 2 µg/mL (≈ 4.83 µM); in assay [1] (setting [10]), 16 µg/mL (≈ 38.6 µM); in assay [1] (setting [11]) it was 0.125 µg/mL (≈ 0.302 µM); in assay [1] (setting [12]), greater than 16 µg/mL; in assay [1] (setting [13]), 16 µg/mL (≈ 38.6 µM). For the same compound, the minimal inhibitory concentration (MIC) in assay [1] (setting [14]) was greater than 16 µg/mL; in assay [2] (setting [15]) it was 0.125 µg/mL (≈ 0.302 µM). In assay [6] (setting [18]), the “Animals with positive catheter at harvest after lock therapy” value was “all”. Also, the “Metastatic infection after lock therapy” value in assay [6] is “A significant proportion of nafcillin-treated animals showed positive metastatic infections at multiple sites”.
